Experimental data: patent publication US20250171459A1, “2-METHYL-4',5'-DIHYDROSPIRO[PIPERIDINE-4,7'-THIENO[2,3-C]PYRAN] DERIVATIVES AS INHIBITORS OF APOL1 AND METHODS OF USING SAME” (Vertex Pharmaceuticals Incorporated, priority 2022, published 2025)

Target: T1, APOL1 (Homo sapiens, UniProt O14791)
T1 sequence (O14791 1-398 S342G/I384M): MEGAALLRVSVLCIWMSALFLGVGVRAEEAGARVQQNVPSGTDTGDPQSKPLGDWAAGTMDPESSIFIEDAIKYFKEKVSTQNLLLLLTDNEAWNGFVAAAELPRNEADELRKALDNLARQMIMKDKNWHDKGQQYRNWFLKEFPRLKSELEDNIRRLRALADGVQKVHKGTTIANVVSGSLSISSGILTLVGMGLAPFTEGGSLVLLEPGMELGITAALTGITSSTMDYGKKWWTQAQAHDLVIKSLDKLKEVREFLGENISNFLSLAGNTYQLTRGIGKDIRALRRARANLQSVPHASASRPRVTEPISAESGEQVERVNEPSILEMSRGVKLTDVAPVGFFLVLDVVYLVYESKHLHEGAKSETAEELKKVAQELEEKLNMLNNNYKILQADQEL
Assay: MultiTox-Fluor Multiplex Cytotoxicity Assay in tet-inducible APOL1 T-REx-HEK293 cells (cell rescue, ratio of dead to live cells)
Format: cell-based
Conditions: tet-inducible transgenic APOL1 T-REx-HEK293 cell lines, 50 ng/mL tet, 24 hours; read-out: IP50 (i.e., IC50 for cell proliferation)
Summary of the method: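 T-REx-HEK293 cells with tet-inducible APOL1 were treated with compound (10 μM top, 10-point 3-fold dilution, duplicate) plus 50 ng/mL tetracycline for 24 h at 37° C, in DMEM with 2% tet-free FBS. MultiTox-Fluor protease signals gave a dead/live ratio, normalized to no tet (100% viability) and tet alone (0%).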

SMILES | IC50 [nM]
C[C@H]1C[C@@]2(CCN1C1CCCC1O)OCCc1cc(CC(F)F)sc12 (some centres unmarked) [Compound 604] | 100 to 500
C[C@H]1C[C@@]2(CCN1CC(O)c1ccc(F)c(F)c1)OCCc1cc(CC(F)F)sc12 (some centres unmarked) [Compound 605] | 100 to 500
C[C@H]1C[C@@]2(CCN1CC1(O)CCS(=O)(=O)CC1)OCCc1cc(CC(F)F)sc12 [Compound 606] | 100 to 500
C[C@H]1C[C@@]2(CCN1C[C@H](O)CO)OCCc1cc(CC(F)F)sc12 [Compound 607] | 100 to 500
C[C@H]1C[C@@]2(CCN1C1COCC1O)OCCc1cc(CC(F)F)sc12 (some centres unmarked) [Compound 609] | < 100
C[C@H]1C[C@@]2(CCN1C[C@@H](O)C(N)=O)OCCc1cc(CC(F)F)sc12 [Compound 610, (2R)-3-[(2′S, 7R)-2-(2,2-difluoroethyl)-2′-methyl-spiro[4,5-dihydrothieno[2,3-c]pyran-7,4′-piperidine]-1′-yl]-2-hydroxy-propanamide] | < 100
C[C@H]1C[C@@]2(CCN1C[C@H](O)C(N)=O)OCCc1cc(CC(F)F)sc12 [Compound 611, (2S)-3-[(2′S, 7R)-2-(2,2-difluoroethyl)-2′-methyl-spiro[4,5-dihydrothieno[2,3-c]pyran-7,4′-piperidine]-1′-yl]-2-hydroxy-propanamide] | < 100
CNC(=O)[C@@H](O)CN1CC[C@]2(C[C@@H]1C)OCCc1cc(CC(F)F)sc12 [Compound 612, (2S)-3-[(2′S, 7R)-2-(2,2-difluoroethyl)-2′-methyl-spiro[4,5-dihydrothieno[2,3-c]pyran-7,4′-piperidine]-1′-yl]-2-hydroxy-N-methyl-propanamide] | 100 to 500
CC(O)CN1CC[C@]2(C[C@@H]1C)OCCc1cc(CC(F)F)sc12 (stereo partly drawn) [Compound 613, 1-((2S,4R)-2′-(2,2-difluoroethyl)-2-methyl-4′,5′-dihydrospiro[piperidine-4,7′-thieno[2,3-c]pyran]-1-yl)propan-2-ol] | 100 to 500
COCCN1CC[C@]2(C[C@@H]1C)OCCc1cc(CC(F)F)sc12 [Compound 614] | 100 to 500
C[C@H]1C[C@@]2(CCN1CCCO)OCCc1cc(CC(F)F)sc12 [Compound 615] | 100 to 500
C[C@H]1C[C@@]2(CCN1CC(F)F)OCCc1cc(CC(F)F)sc12 [Compound 616] | 500 to 1000
C[C@H]1C[C@@]2(CCN1CC1CC1(F)F)OCCc1cc(CC(F)F)sc12 (some centres unmarked) [Compound 617] | < 100
Cc1nc(CN2CC[C@]3(C[C@@H]2C)OCCc2cc(CC(F)F)sc23)c(C)o1 [Compound 618] | 500 to 1000
C[C@H]1C[C@@]2(CCN1CC1CCC(=O)N1)OCCc1cc(CC(F)F)sc12 (some centres unmarked) [Compound 619] | 100 to 500
C[C@H]1C[C@@]2(CCN1CCC(C)(C)O)OCCc1cc(CC(F)F)sc12 [Compound 620] | 100 to 500
C[C@H]1C[C@@]2(CCN1CC1CNC(=O)C1)OCCc1cc(CC(F)F)sc12 (some centres unmarked) [Compound 621] | < 100
C[C@H]1C[C@@]2(CCN1CC(N)=O)OCCc1cc(CC(F)F)sc12 [Compound 622] | 500 to 1000
C[C@H]1C[C@@]2(CCN1CCN1CCCC1=O)OCCc1cc(CC(F)F)sc12 [Compound 623] | 500 to 1000
C[C@H]1C[C@@]2(CCN1CC(=O)N(C)C)OCCc1cc(CC(F)F)sc12 [Compound 624] | 500 to 1000
C#CCN1CC[C@]2(C[C@@H]1C)OCCc1cc(Cl)sc12 [Compound 625, (2′S, 7R)-2-chloro-2′-methyl-1′-prop-2-ynyl-spiro[4,5-dihydrothieno[2,3-c]pyran-7,4′-piperidine]] | 500 to 1000
C[C@H]1C[C@@]2(CCN1Cc1cn(CCO)nn1)OCCc1cc(Cl)sc12 [Compound 627] | 100 to 500
C[C@H]1C[C@@]2(CCN1Cc1cn(CC(CO)CO)nn1)OCCc1cc(Cl)sc12 [Compound 628] | 100 to 500

SMILES | IC50 [nM]
C[C@H]1C[C@@]2(CCN1Cc1cn(CC(C)(CO)CO)nn1)OCCc1cc(Cl)sc12 [Compound 629] | 100 to 500
C[C@H]1C[C@@]2(CCN1Cc1cnn(CCO)c1)OCCc1cc(Cl)sc12 [Compound 632] | < 100
C[C@H]1C[C@@]2(CCN1Cc1cnn(CC3(C)COC3)c1)OCCc1cc(Cl)sc12 [Compound 633] | < 100
C[C@H]1C[C@@]2(CCN1Cc1cnn(CC(C)(CO)CO)c1)OCCc1cc(Cl)sc12 [Compound 634] | < 100
CC(=O)Nc1ccc(CN2CC[C@]3(C[C@@H]2C)OCCc2cc(Cl)sc23)cc1 [Compound 635] | < 100
C[C@H]1C[C@@]2(CCN1Cc1ccc(N(CCO)CCO)cc1)OCCc1cc(Cl)sc12 [Compound 636] | < 100
Cc1cn2nc(CN3CC[C@]4(C[C@@H]3C)OCCc3cc(Cl)sc34)cc2c(NC2CC2)n1 [Compound 637] | < 100
C[C@H]1C[C@@]2(CCN1Cc1ccc(NS(C)(=O)=O)cc1)OCCc1cc(Cl)sc12 [Compound 638] | < 100
C[C@H]1C[C@@]2(CCN1Cc1cccnc1)OCCc1cc(Cl)sc12 [Compound 639] | < 100
COCCc1ncc(CN2CC[C@]3(C[C@@H]2C)OCCc2cc(Cl)sc23)cn1 [Compound 640] | 100 to 500
C[C@H]1C[C@@]2(CCN1Cc1cccc(NS(C)(=O)=O)c1)OCCc1cc(Cl)sc12 [Compound 641] | 100 to 500
C[C@H]1C[C@@]2(CCN1CCCn1cccn1)OCCc1cc(Cl)sc12 [Compound 642] | 500 to 1000
CC(O)CCN1CC[C@]2(C[C@@H]1C)OCCc1cc(Cl)sc12 (some centres unmarked) [Compound 643] | 500 to 1000
C[C@H]1C[C@@]2(CCN1Cc1ccc(OCCO)cc1)OCCc1cc(Cl)sc12 [Compound 644] | < 100
C[C@H]1C[C@@]2(CCN1Cc1ccncc1)OCCc1cc(Cl)sc12 [Compound 645] | 100 to 500
C[C@H]1C[C@@]2(CCN1Cc1cccc(OCCO)c1)OCCc1cc(Cl)sc12 [Compound 646] | < 100
C[C@H]1C[C@@]2(CCN1Cc1ccc(N3CCCC3=O)cc1)OCCc1cc(Cl)sc12 [Compound 647] | < 100
C[C@H]1C[C@@]2(CCN1Cc1ccc(OCC(=O)N3CCOCC3)cc1)OCCc1cc(Cl)sc12 [Compound 648] | < 100
Cc1cncc(CN2CC[C@]3(C[C@@H]2C)OCCc2cc(Cl)sc23)c1 [Compound 649] | 100 to 500
C[C@H]1C[C@@]2(CCN1Cc1cn(-c3ncccn3)cn1)OCCc1cc(Cl)sc12 [Compound 650] | 100 to 500
COc1ncc(CN2CC[C@]3(C[C@@H]2C)OCCc2cc(Cl)sc23)cn1 [Compound 651] | < 100
CNC(=O)c1cccc(CN2CC[C@]3(C[C@@H]2C)OCCc2cc(Cl)sc23)c1 [Compound 652] | 100 to 500
CCc1ncc(CN2CC[C@]3(C[C@@H]2C)OCCc2cc(Cl)sc23)cn1 [Compound 653] | 100 to 500

SMILES | IC50 [nM]
C[C@H]1C[C@@]2(CCN1Cc1ccc(S(C)(=O)=O)cc1)OCCc1cc(Cl)sc12 [Compound 654] | 100 to 500
COc1cc(OCC(N)=O)ccc1CN1CC[C@@]2(C[C@H]1C)OCCc1cc(Cl)sc12 [Compound 655] | < 100
C[C@H]1C[C@@]2(CCN1Cc1cccc(OCC(N)=O)c1)OCCc1cc(Cl)sc12 [Compound 656] | 100 to 500
COc1ccc(CN2CC[C@]3(C[C@@H]2C)OCCc2cc(Cl)sc23)cc1OCC(N)=O [Compound 657] | < 100
C[C@H]1C[C@@]2(CCN1Cc1cnc(N3CCOCC3)nc1)OCCc1cc(Cl)sc12 [Compound 658] | < 100
C[C@H]1C[C@@]2(CCN1Cc1ccc(C(=O)N(C)C)cc1)OCCc1cc(Cl)sc12 [Compound 660] | 100 to 500
COc1ccc(CN2CC[C@]3(C[C@@H]2C)OCCc2cc(Cl)sc23)cn1 [Compound 662] | < 100
COc1cc(CN2CC[C@]3(C[C@@H]2C)OCCc2cc(Cl)sc23)ccc1OCC(N)=O [Compound 663] | < 100
C[C@H]1C[C@@]2(CCN1Cc1ccc3c(c1)n(C)c(=O)n3C)OCCc1cc(Cl)sc12 [Compound 664] | < 100
C[C@H]1C[C@@]2(CCN1Cc1ccc(F)cn1)OCCc1cc(Cl)sc12 [Compound 665] | 100 to 500
C[C@H]1C[C@@]2(CCN1Cc1cnccn1)OCCc1cc(Cl)sc12 [Compound 666] | 100 to 500
C[C@H]1C[C@@]2(CCN1Cc1ccc(C#N)nc1)OCCc1cc(Cl)sc12 [Compound 667] | 100 to 500
C[C@H]1C[C@@]2(CCN1Cc1ccccn1)OCCc1cc(Cl)sc12 [Compound 668] | 500 to 1000
C[C@H]1C[C@@]2(CCN1Cc1ccc(S(C)(=O)=O)c(F)c1)OCCc1cc(Cl)sc12 [Compound 669] | 100 to 500
C[C@H]1C[C@@]2(CCN1CC1CCN(S(C)(=O)=O)CC1)OCCc1cc(Cl)sc12 [Compound 670] | 100 to 500
Cc1nccn1-c1ccc(CN2CC[C@]3(C[C@@H]2C)OCCc2cc(Cl)sc23)cc1 [Compound 671] | < 100
C[C@H]1C[C@@]2(CCN1Cc1ccc(F)cc1)OCCc1cc(Cl)sc12 [Compound 672] | 100 to 500
C[C@H]1C[C@@]2(CCN1CCC1CCOCC1)OCCc1cc(Cl)sc12 [Compound 673] | 500 to 1000
Cc1ncccc1CN1CC[C@]2(C[C@@H]1C)OCCc1cc(Cl)sc12 [Compound 674] | 500 to 1000
Cc1ccc(CN2CC[C@]3(C[C@@H]2C)OCCc2cc(Cl)sc23)c(C)n1 [Compound 675] | 100 to 500
C[C@H]1C[C@@]2(CCN1CC1(C)COC1)OCCc1cc(Cl)sc12 [Compound 676] | 100 to 500
Cc1cncc(N2CCC(CN3CC[C@]4(C[C@@H]3C)OCCc3cc(Cl)sc34)CC2)n1 [Compound 677] | 500 to 1000
